In patent US20260327263A1, “Anti-Bacterial Peptides” (priority 2023, published 2026):
Entries after “also recorded” stand apart in the source; their conditions may differ. Where no end group is shown, it is not given here.

Experiments:
[1] = test system: Pseudomonas aeruginosa PA BAA-2110; experiment: Broth microdilution, PA BAA-2110 (lung infection in cystic fibrosis); assay type: cell-based, Pseudomonas aeruginosa (BAA-2110); conditions: PA BAA-2110
Experimental: Bacteria strains involved in lung infection in cystic fibrosis patients (PA-BAA 2110) and ear-eye infections (PA-CRM 9027) are treated with exemplary variant peptides, such as E1AM2 and Q19L.
Examination of the potency of modified short peptides against PA and SA strains was performed by using the broth microdilution protocol from the Clinical and Laboratory Standards Institute (CLSI) guidelines (CLSI 2012) as described. Briefly, five freshly plated bacteria colonies were grown in cation adjusted MH2 broth (BD Biosciences) in a shaker incubator at 37° C., 220 RPM. Cells were grown to an optical density (OD600) of ~0.2 measured using a Microplate Spectrophotometer (Molecular Devices Spectra Max Plus). 100 μL of microbial culture containing ~5×10^5 CFU/mL of bacteria in the respective broths were introduced into each well containing 100 μL of peptides and incubated overnight at 37° C. Next, to check the bactericidal effects, 100 μL from each well was transferred and spread on sterile MH2 agar plates. The plates were incubated overnight at 37° C. and the number of colonies forming units (CFU) were calculated the following day. Readings of bacteria grown in media without any treatments were normalized to 100% as media control. For the mixed infection study, three freshly plated bacteria colonies each from PA, SA and ST plates were grown together in cation adjusted MH2 broth and proceeded as described above.

[2] = test system: Pseudomonas aeruginosa (PA); experiment: Murine excisional wound infection model (PA); assay type: in vivo, mouse infected with Pseudomonas aeruginosa; conditions: mouse; 1x MBC (6.25 μM), 24 h treatment, vs PBS; p<0.05
Experimental: Excisional wounds in mice are infected with Pseudomonas aeruginosa (PA) for 24 hrs followed by 24 hrs of treatment with E1AM2 or PBS. Each circle represents a single mouse. Statistical analysis was performed by the two-tailed t-test using GraphPad, *p<0.05.
Excisional wounds infected with PA for 24 hours being treated for 24 hours with the E1AM2 V8LQ19L hydrogel at its 1X MBC concentration, compared with hydrogel-only treatment in a mouse model. […] Each circle in the graph represents one mouse. Statistical significance was determined using a t-test, with *p<0.05. The data are presented as colony-forming unit counts presented as means±SEM. […] Collectively, the E1AM2 V8LQ19L peptide showcases unique functionality, combining antibacterial effectiveness and biocompatibility for dermal applications.
The murine wound infection model was carried out as described in 4 with minor modifications. Before infection, PA strain was diluted to an OD ~0.5, and normalized to 1-3×10^7 CFU/ml. A 6 mm biopsy punch (Integra Miltex, New York, USA) was used to create a full-thickness wound, and an inoculum of ~10^5 CFU of the bacteria in a 5 μl volume was applied. The wound was sealed with a Finn chamber on a Scanpor tape (Smart Practice, Phoenix, AZ, USA), and the chamber was fixed to the skin via Tegaderm patch (3M™, Minnesota, USA). […]

[3] = test system: Staphylococcus aureus (SA); experiment: Antimicrobial resistance evolution assay, SA; assay type: cell-based; conditions: serial passaging; resistance = >4-fold MIC change
Excerpt: The development of antimicrobial resistance is defined by greater than a 4-fold change to their initial minimum inhibitory concentration (MIC) at day 1. Exemplary bacteria strains Pseudomonas aeruginosa (PA) and Staphylococcus aureus (SA) are subjected to continuous daily serial passaging over several days, with treatment of exemplary variant peptides E1AM2 (SEQ ID NO: 2) and Q19L (SEQ ID NO: […]) at subinhibitory concentrations. […] The treatments were discontinued when the MIC increased by more than four-fold from the initial MIC or when MIC reached >100 μM.
Briefly, sequential passaging of PA, and SA cells was done with sub-inhibitory concentrations of antibiotics or E1AM2 up to 4 weeks. The cells grown in those concentrations of antibiotics or peptides were diluted to A600 nm (OD600) of ~0.2 and serially passaged daily with the same concentrations at 37° C. with agitation at 24 h intervals.

Hemolysis assay = assay type: cell-based, human; conditions: human, red blood cells; at respective MIC/MBC concentrations; melittin 3.125 μM = 100%
Experimental: The hemolytic score of the peptide variants and pexiganan (SEQ ID NO: 54) are compared to a strong hemolytic peptide, melittin 12 as a control. […] The minimum peptide concentration corresponding to 10% hemolysis (minimal hemolysis concentration, HC) of E1AM2=50 μM, V8LQ19L=12.5 μM, V8LQ19L C-2=3.125 μM, and pexiganan=12.5 μM respectively. Readings of the melittin at 3.125 μM were normalised to 100%.
Examination of hemolytic activity of ultra-short peptides was performed by isolating the red blood cells (RBCs) from human blood samples by centrifugation (1000 g, 4° C., 10 min) and resuspension in 27 mL PBS. This washing step was repeated four times before the RBCs were diluted to a 10% (v/v) suspension. […] Hemolytic properties of E1AM2 and pexiganan were evaluated with melittin used as a positive control, and PBS as a negative control. The plates were incubated at 37° C., for 30 min and then centrifuged (1258 g, 4° C., 6 min). 75 μL of supernatant were transferred into a flat-bottom clear 96-well plate and the OD576 nm was read. Readings of the melittin sample at 3.125 μM were normalized to 100%.

[4] = test system: human keratinocytes (HaCaT); experiment: Cell proliferation assay, HaCaT keratinocytes; assay type: cell-based
Experimental: Wound closure was compared with the untreated samples (circle, red highlight). For improved clarity, error bars have been omitted from this representation. […] Each value is the mean±SD (n=3). Statistical significance was assessed using ANOVA for multiple comparisons (Dunnett's multiple comparisons test). **** p<0.0001, *** p<0.001, ** p<0.01, *p<0.05, ns denotes nonsignificance, p >0.05.
CyQUANT™ Direct Cell Proliferation Assay (ThermoFisher Scientific, Catalogue) was performed as per manufacturer's instructions to determine the safety of the peptides to human keratinocytes. […] The fluorescence intensity and number of stained cells were determined using the LionHeart FX Automated Microscope (BioTek, VT, USA).

bacteria = experiment: Comparison of wild-type peptide E1A to V8LQ19L (Table 14)
Excerpt: Active peptide sequences based on ENO3 exerting significant bactericidal antibiofilm properties, and relevant to chronic wound healing are previously disclosed. The previously disclosed antimicrobial peptides (AMPs) are longer (>22-residues) in length, which would be more costly in production.

With “E1AM2: untagged (E1AM2), KKLLKKWVKLSKKALKLAQSL” the MBC [1] was 6.25 µM, the MIC [1] was 3.125 µM and the “PA infection at wound site (CFU)” value [2] was “effective reduction of PA infection; also recorded: significant bacterial clearance at the wound site”.

In the case of KKLLKKWLKLSKKALKLALSL-NH2 [V8LQ19L], the “development of antimicrobial resistance, SA” value [3] is reported as “effective in preventing the acquisition of AMR”, the hemolysis at 0.5 h (Hemolysis assay) is reported as roughly 0% and the “Cytotoxicity at high concentration (100 μM)” value ([4]; 100 μM, cell line not named in Table 15) is reported as “Non-cytotoxic”. For the same substance, the “cytotoxicity to HaCaT” value ([4]; 24 h, up to highest tested concentrations (peptide), 3% (H2O2)) was “noncytotoxic”, the Cationicity (bacteria) was “Cationic (bacterial membrane” and the “Mechanism of killing bacteria” value (bacteria) was “Membrane disintegration”. For the same substance, the MIC/MBC (bacteria; bacteria not named in Table 14) was 1.56 µM.
